Assay results published in the supplement of paper PMC11451515.

What was measured:
Settings in all cases: 48 h
NOMO1 [1] = experiment: cell viability relative to DMSO control; higher = less cytotoxic
Outline: (§1)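 NOMO1, SEM and P12-Ichikawa leukemia cells spent at least four passages adapting to each medium before use. They were seeded at 500 cells/well (NOMO1, SEM) or 1000 cells/well (P12-Ichikawa) in 5 μl in 1536-well plates and pin-dosed with library compounds in DMSO at 11 threefold steps from 47 μM down to 0.79 nM. After 48 h at 37°C, CellTiter-Glo One luminescence was read. Viability is reported as a percentage of the DMSO wells on each plate, with cell-free wells as background.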

P12-Ichikawa [2] = experiment: as above
Outline: as §1

SEM cells [3] = experiment: as above
Outline: as §1

NOMO1 [4] = experiment: AUC of viability dose-response curve (% viability x log10 dose units); higher = less sensitive
Outline: (§2)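 Medium-adapted leukemia cells in 1536-well plates, at 500 or 1000 cells/well, were incubated for 48 h at 37°C with library compounds in DMSO at 11 threefold doses from 47 μM to 0.79 nM. CellTiter-Glo One luminescence normalised per plate to DMSO and cell-free wells was fitted with a four-parameter log-logistic model over log10 doses. Area under the curve was integrated from this fit by trapezoidal rule, with curves beyond full viability scaled and failed quality-control curves removed.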

P12-Ichikawa [5] = experiment: as above
Outline: as §2

SEM cells [6] = experiment: as above
Outline: as §2

OC[C@H]1O[C@@H](Oc2ccc(O)cc2)[C@H](O)[C@@H](O)[C@@H]1O
cell viability [%]
Settings	NOMO1 [1]	P12-Ichikawa [2]	SEM cells [3]
HPLM + 10% dialyzed FBS, 0.000781 µM	88.1	85.1	68.3
HPLM + 10% dialyzed FBS, 0.00234 µM	102	93.5	82.3
HPLM + 10% dialyzed FBS, 0.00702 µM	95.4	93.1	75.3
HPLM + 10% dialyzed FBS, 0.0211 µM	105	95.7	93
HPLM + 10% dialyzed FBS, 0.0632 µM	95.9	98.3	90.1
HPLM + 10% dialyzed FBS, 0.19 µM	102	99.9	95.1
HPLM + 10% dialyzed FBS, 0.569 µM	79.7	102	95.7
HPLM + 10% dialyzed FBS, 1.71 µM	101	101	19.1
HPLM + 10% dialyzed FBS, 5.12 µM	86.5	94.2	93.1
HPLM + 10% dialyzed FBS, 15.4 µM	114	98.4	77.7
HPLM + 10% dialyzed FBS, 46.1 µM	104	97	76.3
RPMI 5 mM glucose + 10% FBS, 0.000781 µM	81.4	80.7	71.7
RPMI 5 mM glucose + 10% FBS, 0.00234 µM	93.9	79.8	90.8
RPMI 5 mM glucose + 10% FBS, 0.00702 µM	87	87	73.7
RPMI 5 mM glucose + 10% FBS, 0.0211 µM	83.1	94.9	96.3
RPMI 5 mM glucose + 10% FBS, 0.0632 µM	86	95.7	90.3
RPMI 5 mM glucose + 10% FBS, 0.19 µM	87.7	86	95.4
RPMI 5 mM glucose + 10% FBS, 0.569 µM	98.5	84.7	102
RPMI 5 mM glucose + 10% FBS, 1.71 µM	91.5	83.6	17
RPMI 5 mM glucose + 10% FBS, 5.12 µM	92.5	90.9	82.3
RPMI 5 mM glucose + 10% FBS, 15.4 µM	90.8	93.1	103
RPMI 5 mM glucose + 10% FBS, 46.1 µM	88.9	91.3	77.2
RPMI 5 mM glucose + 10% dialyzed FBS, 0.000781 µM	65.2	80.1	86.2
RPMI 5 mM glucose + 10% dialyzed FBS, 0.00234 µM	74.8	84.8	81.8
RPMI 5 mM glucose + 10% dialyzed FBS, 0.00702 µM	85.4	91.1	92.2
RPMI 5 mM glucose + 10% dialyzed FBS, 0.0211 µM	82.1	93.4	87.8
RPMI 5 mM glucose + 10% dialyzed FBS, 0.0632 µM	82.3	93.6	72
RPMI 5 mM glucose + 10% dialyzed FBS, 0.19 µM	79.6	87.8	101
RPMI 5 mM glucose + 10% dialyzed FBS, 0.569 µM	89.1	88.4	105
RPMI 5 mM glucose + 10% dialyzed FBS, 1.71 µM	94.5	88.7	22.1
RPMI 5 mM glucose + 10% dialyzed FBS, 5.12 µM	86.1	93.1	97.9
RPMI 5 mM glucose + 10% dialyzed FBS, 15.4 µM	95.5	89.6	88
RPMI 5 mM glucose + 10% dialyzed FBS, 46.1 µM	93.4	88.4	81.2

AUC of viability dose-response curve
Settings	NOMO1 [4]	P12-Ichikawa [5]	SEM cells [6]
HPLM + 10% dialyzed FBS	461	461	376
RPMI 5 mM glucose + 10% FBS	426	421	390
RPMI 5 mM glucose + 10% dialyzed FBS	404	426	397
